Data reported in ChEMBL document CHEMBL1130060, “Novel prodrugs of cyanamide that inhibit aldehyde dehydrogenase in vivo” (1997).

Assays:
[1] = biological target: T1, Aldehyde dehydrogenase 1A1 (Rattus norvegicus) (UniProt P51647); experiment: Inhibitory activity against aldehyde dehydrogenase in rats.; details: concentration not given here
T1 sequence (whole entry): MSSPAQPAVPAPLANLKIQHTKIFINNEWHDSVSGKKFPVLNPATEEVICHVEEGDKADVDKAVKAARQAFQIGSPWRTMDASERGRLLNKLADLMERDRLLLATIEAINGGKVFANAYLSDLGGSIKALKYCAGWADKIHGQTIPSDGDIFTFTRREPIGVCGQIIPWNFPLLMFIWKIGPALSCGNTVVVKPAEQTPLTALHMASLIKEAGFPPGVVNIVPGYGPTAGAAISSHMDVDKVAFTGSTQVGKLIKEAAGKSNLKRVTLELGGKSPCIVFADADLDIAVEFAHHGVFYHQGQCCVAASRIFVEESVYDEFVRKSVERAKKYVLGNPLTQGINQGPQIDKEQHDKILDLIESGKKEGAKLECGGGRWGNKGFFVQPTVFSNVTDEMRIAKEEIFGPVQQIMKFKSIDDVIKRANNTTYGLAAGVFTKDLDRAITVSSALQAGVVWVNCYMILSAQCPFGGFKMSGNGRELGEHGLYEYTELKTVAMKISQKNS

[2] = test system: Rattus norvegicus; experiment: Blood EtOH level in rats following the administration of the compound.; assay type: functional
[3] = test system: Rattus norvegicus; experiment: Blood acetaldehyde level in rats following the administration of the compound.; assay type: functional

| inhibition [1] | Compound | Potency [2] | Potency [3] |
| --- | --- | --- | --- |
| 88% | C=CCSC(=N)N |  |  |
| 82% | CCCCSC(=N)N |  |  |
| 66% | CC(C)CSC(=N)N |  |  |
|  | CC(=O)NCCSC(=N)N | 50.1 mM | 0.067 mM |
